Results as given in publication PMC6254164, “Synthesis of Novel Hybrid Molecules from Precursors With Known Antiparasitic Activity” (Molecules, 2009).
Like-named read-outs stand apart in the source and are kept apart here.

Legend:
Vero cells = experiment: Cytotoxicity assay, trypan blue exclusion; assay type: cell-based; settings: 48 hour incubation, six determinations, read-out: Mean IC50 ± SD, Vero cells
Description: (§1) The cytotoxicity of the hybrid compounds and the reference drug, metronidazole, was investigated on Hep-2 and Vero cells using the standard cytotoxicity assay and the trypan blue exclusion method. A cell suspension (10^5 cells/mL RPMI medium-10% inactivated foetal calf serum) was prepared from confluent cultures and 100 µL portions of the suspension were added to the wells of 96-well plates. The cells were incubated for 24 h at 37 °C and 5 % CO2 and the medium in each well was then replaced with fresh 150 µL medium. Solutions of the compounds or the reference drug were prepared and sterilized as described in “Antiamoebic and antigiardial activity” section above. Then, 150 µL-two fold serial dilutions of each of the compounds and the reference drug starting at a concentration of 2000 µg/mL in culture medium were prepared in the plates. After 48 hour incubation at 37 °C and 5 % CO2, the number of cells in each well was determined as follows: The medium in each well was gently replaced with 100 µL of 0.25% (w/v) trypsin-0.53 mM EDTA solution and the plates were incubated for 5 min. at 37 °C to allow cell detachment. Two-hundred microliters of trypan blue solution were added to each well and the plates were, then, placed on ice. The cells were counted in a hemacytometer at the 10X objective. Each compound was assayed in duplicate in each of three independent experiments. In each assay the negative controls (without any compound or reference drug) were included in duplicates.

Hep-2 cells = experiment: cells; assay type: cell-based; settings: for IC50: 48 hour incubation, six determinations, read-out: Mean IC50 ± SD, Hep-2 cells
Description: as §1

[1] = tested on: Giardia intestinalis WB strain; experiment: In vitro antigiardial activity (parasite count, trypan blue); assay type: cell-based; settings: 72 hours at 36-37 °C, six determinations, read-out: Mean IC50 ± SD, Giardia intestinalis
Description: (§2) Entamoeba histolytica HK-9 strain (ATCC number 30015) was cultured in LYI-S-2 medium supplemented with antibiotics. Giardia intestinalis WB strain (ATCC number 30957) was grown in a modified YI-S medium with antibiotics. Both parasites were cultivated in 15-mL screw-capped borosilicate glass tubes containing 13 mL medium. The tubes were incubated on a 15º horizontal slant at (36-37) ºC. Culture maintenance and subculturing was performed as described Entamoeba and Giardia were harvested from confluent cultures by chilling of the tubes on ice for 5-10 min. to detach cells, followed by centrifugation at 800 x g for 5 min.
(§3) Two milligrams of a test compound or a mixture were dissolved in 10 µL of dimethyl sulfoxide (DMSO) and completed with 1 mL growth medium. The solutions were filter sterilized using 0.22 µm syringe filters and the appropriate volumes of the solutions were taken to prepare the concentrations of each compound or reference drug in 15-mL screw-capped borosilicate glass tubes. […] For the control mixtures of the precursor compounds, 1:1 molar ratios were prepared. Each tube was inoculated with 20,000 cells of the parasite under testing (Entamoeba or Giardia). Each compound or mixture was assayed in duplicate in each of three independent experiments. In each assay, the appropriate controls were performed, including the one without any compound or mixture and another with metronidazole as the positive control. The caps of Entamoeba and Giardia tubes were tightly screwed and wrapped with Parafilm. The tubes were incubated on a 15º horizontal slant at 36-37 °C for 72 hours.
(§4) The parasites in each tube were counted using the standard hemacytometer at the 10X objective. In each count, trypan blue was employed to distinguish live from dead parasites. To permit detachment of Entamoeba and Giardia, the tubes were placed on ice for few minutes and the parasites were then centrifuged at 1000 x g for 10 min. The supernatant was discarded and 1 mL fresh medium was added to each tube. The final suspension was prepared by mixing 25 µL of the parasite suspension in each tube with 100 µL of 0.4 % trypan blue in phosphate buffered saline (PBS). The 50% inhibitory concentration (IC50) was employed as a parameter for biological activity. The IC50 is the concentration of compounds which cuts the number of parasites to half that in the negative control (growth medium + DMSO + parasites).

[2] = tested on: Entamoeba histolytica HK-9 strain; experiment: In vitro antiamoebic activity (parasite count, trypan blue); assay type: cell-based; settings: 72 hours at 36-37 °C, six determinations, read-out: Mean IC50 ± SD, Entamoeba histolytica
Description: as §2, §3, §4

[3] = Solubility in DMSO-aqueous medium (bioassay preparation); assay type: physicochemical
Description: The antiamoebic and antigiardial activities of the prepared hybrid molecules 8, 10-a, 12, their precursors, and 1:1 mixtures of these precursors were tested as described, with some modifications. […] Two milligrams of a test compound or a mixture were dissolved in 10 µL of dimethyl sulfoxide (DMSO) and completed with 1 mL growth medium. […] For each preparation, concentrations of 240, 120, 60, 30, 15, 7.5, 3.5, 1.7, 0.8, 0.4, 0.2, 0.1 µg/mL medium were prepared in a final volume of 15 mL to exclude air from the tube. For the control mixtures of the precursor compounds, 1:1 molar ratios were prepared. […] Each compound or mixture was assayed in duplicate in each of three independent experiments. In each assay, the appropriate controls were performed, including the one without any compound or mixture and another with metronidazole as the positive control. The caps of Entamoeba and Giardia tubes were tightly screwed and wrapped with Parafilm. The tubes were incubated on a 15º horizontal slant at 36-37 °C for 72 hours.

Molecule: 3-(5-nitrofuran-2-yl)-N-[2-(5-nitroimidazol-1-yl)ethyl]acrylamide [Compound 8]
- IC50 (Vero cells): 90.5 ± 7.83 µM
- IC50 (Hep-2 cells): 108 ± 8.02 µM
- IC50 [1]: 5.56 ± 0.37 µM
- IC50 [2]: 5.32 ± 0.21 µM

Molecule: Cc1ncc([N+](=O)[O-])n1CCN [Compound 6, 2-(2-Methyl-5-1H-nitroimidazolyl)ethylamine, reference compound]
- IC50 ([1]; Giardia duodenalis, 72 h): 18.5 ± 1.43 µM
- IC50 ([2]; Entamoeba histolytica, 72 h): 18.2 ± 2.28 µM

Molecule: O=C(O)/C=C/c1ccc([N+](=O)[O-])o1 [Compound 7, 5-Nitro-2-furylacrilic acid, reference compound]
- IC50 ([1]; Giardia duodenalis, 72 h): 88.4 ± 7.1 µM
- IC50 ([2]; Entamoeba histolytica, 72 h): 94.3 ± 9.76 µM

Molecule: Clc1ccc2c(N3CCNCC3)ccnc2c1 [Compound 9, 7-Chloro-4-(piperazine-1-yl) quinoline, reference compound]
- IC50 ([1]; Giardia duodenalis, 72 h): 67.5 ± 8.67 µM
- IC50 ([2]; Entamoeba histolytica, 72 h): 55.7 ± 5 µM

Molecule: O=C(/C=C/c1ccc([N+](=O)[O-])o1)N1CCN(c2ccnc3cc(Cl)ccc23)CC1 [Compound 10-a]
- IC50 (Vero cells; Chlorocebus sabaeus, Vero): 593 ± 8.71 µM
- cytotoxicity at the lethal concentrations against the parasites (Hep-2 cells; Hep-2 and Vero cells): non-cytotoxic
- IC50 (Hep-2 cells; Homo sapiens, HEp-2): 574 ± 7.77 µM
- IC50 [1]: 145 ± 5.37 µM
- IC50 ([1]; Giardia duodenalis, 72 h): ~140 µM
- IC50 [2]: 140 ± 6.37 µM
- IC50 ([2]; Entamoeba histolytica, 72 h): ~140 µM

Molecule: O=C(/C=C\c1ccc([N+](=O)[O-])o1)N1CCN(c2ccnc3cc(Cl)ccc23)CC1 [Compound 10-b]
- solubility in DMSO-aqueous medium [3]: insolubility

Molecule: Cc1ncc([N+](=O)[O-])n1CCO [Metronidazole, metronidazole, reference compound]
- IC50 (Vero cells; Chlorocebus sabaeus, Vero): 1500 ± 17.8 µM
- IC50 (Hep-2 cells; Homo sapiens, HEp-2): 1460 ± 18.3 µM
- IC50 ratio, Hep-2 and Vero cells versus the tested parasites (Hep-2 cells; IC50 against Hep-2 and Vero cells over IC50 against Entamoeba and Giardia): around 270 times
- IC50 ([1]; Giardia duodenalis, 72 h): 5.7 ± 0.78 µM
- IC50 ([2]; Entamoeba histolytica, 72 h): 5.2 ± 1.03 µM
